Results on one molecule are retold here after patent publication US20150125498A1, “NEW PARTICLE STABILIZED EMULSIONS AND FOAMS” (SPEXIMO AB, priority 2010, published 2015).

In one data set the test system is adult humans. To be noted: cited from earlier work.
Data set [1] can be described thus: In vitro skin penetration of methyl salicylate in flow diffusion cell (Experiment 9). The class given is in vitro ADME, pig.
Method: The emulsions contained 56% oil and 214 mg starch/ml oil (corresponding to sample M in experiment 8). The total volume was 7 ml and each experiment was performed in triplicate. Methyl salicylate, dissolved in the oil phase, was used as control substance for studying the permeability into the skin.
The skin diffusion measurement was performed in a flow cell by monitoring the transport of methyl salicylate from the three different topical formulations across pigskin membrane and silicone membrane under a flow of phosphate buffer with pH 6.8. The diffusion experiments were performed in seven-chamber diffusion cells at 32° C. and the donor and receptor phase were separated by a membrane with a diffusion area of 0.64 cm^2 (9 mm Ø). About 1 g of the emulsions (donor phase) were spread uniformly on the membranes. The cells were covered with parafilm to avoid evaporation. Buffer flowed through the pump (IsmatecIPN-16, L852) with a flow of 2 ml/h. Samples were collected every two hours during 12 hours and were analyzed using a spectrophotometer (Varian Carry 50Bio) at the detection wavelength for methyl salicylate (302 nm).

With `COC(=O)c1ccccc1O` [methyl salicylate, Methyl salicylate], in the data set on adult humans, the LD50 is on record as 500 mg/kg. In addition, the “Steady state flux of methyl salicylate” value in data set [1] (pig skin, 32° C., 56% oil starch Pickering emulsions) was “around 8 μg/(cm2*h)”. For the same molecule, the “Flux compared with buffer solutions of the same methyl salicylate concentration” value in data set [1] (similar experimental set up observed previously) is listed as “nearly two times higher”.

What is called LD50 is the dose expected to kill half of the subjects tested.
